Experimental data from publication PMC4841536, “Characterization of the Anti-HCV Activities of the New Cyclophilin Inhibitor STG-175” (PLoS ONE, 2016).
Like-named read-outs stand apart in the source and are kept apart here.

What was measured:
[1] = system: HCV (JFH-1) in Huh7.5.1 cells; experiment: Mono-infection, HCV core ELISA; format: cell-based, hepatitis C virus; settings: both 0.5 and 5 μM, added together with virus, 12 days
Excerpt: (§1) For mono-infections: a) human hepatoma Huh7.5.1 cells were infected with HCV (JFH-1) and viral replication was quantified by HCV core ELISA (Ortho HCV antigen ELISA kit; Ortho Clinical Diagnostics, Waco Chemicals, Inc. or HCV Core ELISA, XpressBio); b) sodium-taurocholate co-transporting polypeptide (NTCP)-positive Huh7 cells were infected with hepatitis B virus (HBV) AD38 (produced from HepAD38 cells) and viral replication was quantified by HBV HBeAg ELISA; and c) human (peripheral blood monocytic cells (PBMCs) were infected with HIV-1 (JR-CSF) and viral replication was quantified by HIV-1 capsid/p24 ELISA. PBMCs were isolated as described previously. The Scripps Research Institute Normal Blood Donor Service (TSRI NBDS) provides TSRI investigators who have Human Subjects Committee-approved protocols with a source of normal blood for their research. Donors are assured of a controlled clinical setting for their blood to be drawn by licensed phlebotomists, and investigators are assured that the donors whose specimens they obtain through the service have been screened upon entry into the program and annually thereafter for a CBC, Hepatitis B and C and HIV-1. Hemoglobin determinations at every donation protect the donor from phlebotomy-induced anemia. […]

[2] = system: HCV GT2a genomic replicon Luc-Neo-JFH-1; experiment: Luciferase reporter replicon antiviral assay, GT2a; format: cell-based; settings: Hepatitis C virus
Experimental: (§2) The anti-HCV activity of STG-175 was conducted using a panel of luciferase reporter replicon cell lines including GT1a, GT1b, GT2a, GT3a and GT4a as we described previously. The GT1a subgenomic renilla luciferase reporter replicon H77 RLucP (7) was supplied by Dr. Delaney. The GT1b subgenomic firefly luciferase reporter replicon pFK-I389/NS3-3’ [29] was supplied by Dr. Bartenschlager. The GT1B subgenomic NS3, NS5A and NS5B mutants were created via homologous recombination using the In-Fusion HD Cloning kit (Clontech) as we described previously. The GT2a genomic luciferase reporter replicon Luc-Neo-JFH-1 was generated as previously. The plasmid pFK-Luc-JFH1 was supplied from Drs. […] The CellTiter-Fluor™ Cell Viability Assay is a non-lytic fluorescence assay, which measures the number of live cells. […] Luciferase activity was determined using the Luciferase Assay System (Promega) in a Berthold luminometer. […] Viable cells continuously convert resazurin to resorufin, increasing the overall fluorescence and color of the media surrounding cells.
(§3) Fig 2 Anti-HCV activities of STG-175 among GTs. […] Luciferase activity was determined using the Luciferase Assay System in a Berthold luminometer. […] Data are expressed as mean of relative light units and calculated EC50s are presented. […]

[3] = system: HCV GT4a subgenomic replicon ED43/SG-Feo; experiment: Luciferase reporter replicon antiviral assay, GT4a; format: cell-based; settings: Hepatitis C virus
Experimental: as §2, §3

[4] = system: HBV AD38 in NTCP-Huh7 cells; experiment: Mono-infection, HBV HBeAg ELISA; format: cell-based, hepatitis B virus; settings: 0.5 and 5 μM, added together with virus, 12 days
Excerpt: as §1

[5] = system: HCV GT1b subgenomic replicon pFK-I389/NS3-3’; experiment: Luciferase reporter replicon antiviral assay, GT1b; format: cell-based; settings: Hepatitis C virus
Experimental: The anti-HCV activity of STG-175 was conducted using a panel of luciferase reporter replicon cell lines including GT1a, GT1b, GT2a, GT3a and GT4a as we described previously. The GT1a subgenomic renilla luciferase reporter replicon H77 RLucP (7) was supplied by Dr. Delaney. The GT1b subgenomic firefly luciferase reporter replicon pFK-I389/NS3-3’ [29] was supplied by Dr. Bartenschlager. The GT1B subgenomic NS3, NS5A and NS5B mutants were created via homologous recombination using the In-Fusion HD Cloning kit (Clontech) as we described previously. The GT2a genomic luciferase reporter replicon Luc-Neo-JFH-1 was generated as previously. The plasmid pFK-Luc-JFH1 was supplied from Drs. Wakita and Pietschmann and the XbaI site in the firefly luciferase gene and the NotI site in the EMCV IRES were used to take the Luciferase/Ubiquitin-NPT II (the neomycin phosphotransferase II gene) fusion cassette out of pFK389ILuc-Neo (wild-type replicon from GT1b) and inserted into the pFK-Luc-JFH1 plasmid, generating full-length Luc-Neo-JFH-1 [30]. The GT3a subgenomic firefly luciferase reporter replicon S52/SG-Feo (AI) and the GT4a subgenomic firefly luciferase reporter replicon ED43/SG-Feo [33] were supplied by Drs. Rice and Bukh. Replicons were stably expressed in Huh7.5 or Huh7.5.1 cells under G418 selection. On Day 1, cells (5,000) were plated into 96-well plates in complete DMEM containing 10% FCS. On Day 2, increasing drug concentrations were added to wells. On Day 5, 72 h post-drug addition, medium was removed and replaced with 100 μL of fresh medium. Hundred μL of the fluorogenic, cell-permeant peptide substrate glycyl-phenylalanyl-amino fluorocoumarin was added to wells as per manufacturer’s recommendation (Promega Corp, Madison, WI). The CellTiter-Fluor™ Cell Viability Assay is a non-lytic fluorescence assay, which measures the number of live cells. […] Medium was removed, cells washed and lysed in 20 μL of Cell Culture Lysis Reagent. Luciferase activity was determined using the Luciferase Assay System (Promega) in a Berthold luminometer. The alamarBlue® assay (Thermo Fischer Scientific) was used to measure CC50s for STG-175 on replicon cell lines. When cells are alive they maintain a reducing environment within the cytosol of the cell. […] Upon entering cells, resazurin is reduced to resorufin, a compound that is red in color and highly fluorescent. Viable cells continuously convert resazurin to resorufin, increasing the overall fluorescence and color of the media surrounding cells.
Fig 2 Anti-HCV activities of STG-175 among GTs. A. Replicon-containing cells (5,000) were exposed to increasing concentrations of the indicated drugs. Seventy-two hours post-drug addition, the fluorogenic, cell-permeant peptide substrate glycyl-phenylalanyl-amino fluorocoumarin was added to measure the number of live cells. […] Luciferase activity was determined using the Luciferase Assay System in a Berthold luminometer. B. A similar experiment was conducted with the GT1b replicon cell line in 0, 5, 10, 20 and 40% of human serum. Data are expressed as mean of relative light units and calculated EC50s are presented. […] C.

Q: For `CC=CCC(C)C(O)C1C(=O)NC(CC)C(=O)N(C)C(CSCCCCO)C(=O)N(C)C(CC(C)(C)O)C(=O)NC(C(C)C)C(=O)N(C)C(CC(C)C)C(=O)NC(C)C(=O)NC(C)C(=O)N(C)C(CC(C)C)C(=O)N(C)C(CC(C)C)C(=O)N(C)C(C(C)C)C(=O)N1C` (stereo not drawn) [STG-175], which “HCV infection (HCV core ELISA)” value [1] is on record?
A: totally blocked

Q: What about the EC50 ([2]; 72 h post-drug addition, luciferase, read-out: EC50 GT2a) of the same compound?
A: 11.5 nM

Q: And the EC50 ([2]; Fig 2D table, unit inferred, read-out: EC50 GT2a (Fig 2D))?
A: 11.5 nM

Q: What about the EC50 ([3]; 72 h, read-out: EC50 GT4a) of the same compound?
A: 15.2 nM

Q: And the EC50 ([3]; read-out: EC50 GT4a (Fig 2D))?
A: 15.2 nM

Q: What about the “HBV infection (HBeAg ELISA)” value [4] of the same compound?
A: significantly reduced

Q: And the EC50 ([5]; 0% human serum, read-out: EC50 GT1b in human serum)?
A: 16 nM

Q: What about the EC50 ([5]; 5% human serum, read-out: EC50 GT1b in human serum) of the same compound?
A: 15 nM

Q: And the EC50 ([5]; 10% human serum, read-out: EC50 GT1b in human serum)?
A: 18.8 nM

Q: What about the EC50 ([5]; 20% human serum, read-out: EC50 GT1b in human serum) of the same compound?
A: 22.2 nM

Q: What about the EC50 ([5]; 40% human serum, read-out: EC50 GT1b in human serum) of the same compound?
A: 37.2 nM

Q: And the EC50 ([5]; 72 h, 72 h post-drug addition, luciferase, read-out: EC50 GT1b)?
A: 15.1 nM
